{
  "source": "patent US10711244B2",
  "about": "“Mammalian neural plate border stem cells capable of forming neural tube and neural crest cell lineages including central and peripheral neurons” (Max-Planck-Gesellschaft zur Förderung der Wissenschaften …, priority 2012, dated 2020)",
  "format_in_all_cases": "cell-based, human",
  "key": {"NPBSCs [1]": {"system": "NPBSCs", "experiment": "Neural rosette formation by NPBSC colonies cultured with FGF2", "experimental": "(§1) For confocal microscopy, cells were plated on Matrigel-coated glass coverslips. Cultures were fixed for 20 minutes with 4% paraformaldehyde (Electron Microscopy Sciences) in PBS (Invitrogen) and washed twice with PBS. Permeabilization and blocking was done in one step using 0.1% Triton X-100 (Sigma Aldrich), 10% fetal calf serum (PAA) and 1% BSA in PBS for 45 minutes. Plates or coverslips were washed once with 0.1% BSA in PBS and the primary antibodies applied overnight at 4° C. in 1% BSA in PBS. The next day, following one washing step with 0.1% BSA in PBS, secondary antibodies were applied for one hour at room temperature in 1% BSA in PBS. Finally, cells were washed three times with 0.1% BSA in PBS-T (0.05% Tween 20), including a Hoechst counterstaining for nuclei in the second washing step. Cells were mounted in Vectashield mounting medium (Vector Labs) and imaged on a Zeiss PALM/Axiovert fluorescence microscope or a Zeiss LSM700 confocal microscope. If necessary, images were merged using ImageJ and Adobe Photoshop.\nWe tested this by culturing NPBSC colonies in the presence of FGF2, which has previously been reported to induce neural rosette formation by hEBs that have been plated (Zhang et al., 2001). […] For further characterization, we immunostained for ZO-1, which is expressed by neural rosettes but spatially localized to the apical surface (Elkabetz et al., 2008)."}, "NPBSCs [2]": {"system": "NPBSCs", "experiment": "Dorsoventral patterning of NPBSCs by CHIR and PMA (qRT-PCR, immunostaining)", "experimental": "Total RNA was isolated from cultured cells using RNeasy columns (Qiagen), according to manufacturer instructions, including an on-column DNase digest. Isolated RNA was reverse-transcribed using M-MLV Reverse Transcriptase (USB) with oligo-[…] primers (Metabion) for 1 h at 42° C. qRT-PCR was performed on an Applied Biosystems 7500 Real-Time PCR system with SYBR green PCR master mix (ABI) and 56 ng of original RNA equivalents per 20 μl PCR reaction. Cycling conditions were 40 cycles of 15 s, 95° C./60 s 60° C. Relative expression levels were calculated using the […] method, normalized to biological reference samples and using GAPDH and ACTB as housekeeping genes. Next, we sought to determine if NPBSCs remain competent for WNT and SHH mediated patterning of neural fate commitment. […] SHH signaling opposes dorsal neural fates and specifies ventral fates (Ulloa and Briscoe, 2007). […] Therefore, we conclude that NPBSCs are receptive to WNT and SHH induced dorsoventral patterning of neural fate specification. […] As such, the upregulation of these markers by NPBSCs could also be because of assuming a neural plate border and/or neural crest identity. To test this possibility, we assessed the responsiveness of the CNS progenitor marker SOX1 to SHH and WNT signaling. […] The inhibition by CHIR is the same that induced MSX1 and PAX3 upregulation."}, "differentiating hEBs": {"system": "differentiating hEBs", "experiment": "NPBSC derivation from EBs with CHIR and/or PMA", "conditions": "EBs treated with the indicated small molecules; morphology, neural markers", "experimental": "For generation of NPBSCs from pluripotent stem cells, colonies were detached from the MEFs three to four days after splitting, using 2 mg/ml collagenase IV (Invitrogen). Colony pieces were collected by sedimentation and resuspended in hESC medium (without FGF2) supplemented with 10 μM SB-431542 (Ascent Scientific), 1 μM dorsomorphin (Tocris) for neural induction, as well as 3 μM CHIR 99021 (Axon Medchem), 0.5 μM PMA (Alexis) and cultured in petri dishes. Medium was replaced on day two by N2B27 supplemented with the same small molecule supplements. N2B27 consisted of DMEM-F12 (Invitrogen)/Neurobasal (Invitrogen) 50:50 with 1:200 N2 supplement (Invitrogen), 1:100 B27 supplement lacking vitamin A (Invitrogen) with 1% Penicillin/Streptomycin/Glutamine (PAA). On day four, SB-431542 and dorsomorphin were withdrawn and 150 μM Ascorbic Acid (AA; Sigma) was added to the medium. […] BD Biosciences) 12 well plates at a density of about ten to fifteen per well in NPBSC expansion medium (N2B27 with CHIR, PMA and AA). For coating, Matrigel was diluted to a final dilution of 1:100 in Knockout DMEM (Invitrogen) prior to coat 500 μl per well of a 12 well plate over night. Coated plates were wrapped with Parafilm and kept in the fridge for up to one month. The first split was performed at a 1:5 to 1:10 ratio on day 2 to 4 after plating. All the remaining splitting ratios were 1:10. […]"}, "NPBSCs [3]": {"system": "NPBSCs", "experiment": "Directed differentiation of NPBSCs into PNS neurons", "experimental": "For generation of PNS neurons, NPBSCs two days after splitting were switched to N2B27 with only CHIR for two days. Afterward, 10 ng/ml BMP4 (R&D Systems) was added for eight days. Splitting and maturation was performed as described for the generation of motor neurons. For astrocyte and mesenchymal neural crest differentiation, NPBSCs were cultured with DMEM (PAA) with 10% fetal calf serum (PAA) and 1% Pen/Strep/Glutamin (PAA), beginning two days after splitting. Cultures were split twice at a 1:3 ratio when confluent using trypsin (Invitrogen).\nas §1\nTotal RNA was isolated from cultured cells using RNeasy columns (Qiagen), according to manufacturer instructions, including an on-column DNase digest. […] Relative expression levels were calculated using the 2^−2Δ method, normalized to biological reference samples and using GAPDH and ACTB as housekeeping genes. […]"}},
  "data": [
    {"molecule": "FGF2: basic fibroblast growth factor, a member of the fibroblast growth factor family", "values": [
      {"measurement": "neural rosette formation", "setting": "NPBSCs [1]; NPBSC colonies cultured with FGF2 for 2 days", "result": "numerous neural rosettes were formed"},
      {"measurement": "ZO-1 expression localization", "setting": "NPBSCs [1]; immunostaining after FGF2 treatment", "result": "re-oriented to the apical surface of the rosettes"}
    ]},
    {"molecule": "Cc1cnc(-c2cnc(NCCNc3ccc(C#N)cn3)nc2-c2ccc(Cl)cc2Cl)[nH]1", "note": "[CHIR, 6-[[2-[[4-(2,4-dichlorophenyl)-5-(5-methyl-1H-imidazol-2-yl)-2-pyrimidinyl]amino]ethyl]amino]-3-pyridinecarbonitrile]", "values": [
      {"measurement": "SOX1 expression", "setting": "NPBSCs [2]; 6 days", "result": "inhibited"},
      {"measurement": "expression of dorsal neural progenitor markers MSX1 and PAX3", "setting": "NPBSCs [2]; 6 days culture", "result": "upregulated"},
      {"measurement": "outcome of NPBSC derivation from EBs", "setting": "differentiating hEBs", "result": "produced many non-neural cells"}
    ]},
    {"molecule": "BMP4: activator of the BMP signalling pathway (Gene Symbol BMP4), from R&D Systems (protein, UniProt P12644 293-408, looked up) Bone morphogenetic protein 4: SPKHHSQRARKKNKNCRRHSLYVDFSDVGWNDWIVAPPGYQAFYCHGDCPFPLADHLNSTNHAIVQTLVNSVNSSIPKACCVPTELSAISMLYLDEYDKVVLKNYQEMVVEGCGCR", "values": [
      {"measurement": "PERIPHERIN immunostaining of neurons", "setting": "NPBSCs [3]; 8 days BMP4", "result": "majority of the neurons were PERIPHERIN-positive"},
      {"measurement": "effect on neurogenesis", "setting": "NPBSCs [3]; 8 days treatment", "result": "did not inhibit neurogenesis"},
      {"measurement": "PERIPHERIN and BRN3A expression", "setting": "NPBSCs [3]; qRT-PCR, 8 days of treatment", "result": "upregulated"}
    ]}
  ]
}
